# Measurements: publication PMC12203311, “Design, synthesis, in silico and in vitro evaluation of pyrrole–indole hybrids as dual tubulin and aromatase inhibitors with potent anticancer activities” (RSC Advances, 2025)
# Assays:
# CCRF-CEM = assay: NCI60 five-dose screen; type: cell-based; conditions: Homo sapiens, leukemia; for CC50: read-out: LC50 (the source's name)
# HOP-92 = assay: NCI60 five-dose screen; type: cell-based; conditions: Homo sapiens, HOP-92, NSC lung cancer; for CC50: read-out: LC50 (the source's name)
# NCI-H322M = assay: NCI60 five-dose screen; type: cell-based; conditions: Homo sapiens, NSC lung cancer; for CC50: read-out: LC50 (the source's name)
# NCI-H522 = assay: NCI60 five-dose screen; type: cell-based; conditions: Homo sapiens, NCI-H522, NSC lung cancer; for CC50: read-out: LC50 (the source's name)
# KM12 = assay: NCI60 five-dose screen; type: cell-based; conditions: Homo sapiens, KM12, colon cancer; for CC50: read-out: LC50 (the source's name)
# SW-620 = assay: NCI60 five-dose screen; type: cell-based; conditions: Homo sapiens, SW-620, colon cancer; for CC50: read-out: LC50 (the source's name)
# U251 = assay: NCI60 five-dose screen; type: cell-based; conditions: Homo sapiens, U-251, U251, CNS cancer; for CC50: read-out: LC50 (the source's name)
# MALME-3M = assay: NCI60 five-dose screen; type: cell-based; conditions: Homo sapiens, melanoma; for CC50: read-out: LC50 (the source's name)
# M14 = assay: NCI60 five-dose screen; type: cell-based; conditions: Homo sapiens, M14, melanoma; for CC50: read-out: LC50 (the source's name)
# MDA-MB-435 = assay: NCI60 five-dose screen; type: cell-based, human; conditions: Homo sapiens; for CC50: MDA-MB-435, MDA-MB-435, melanoma, read-out: LC50 (the source's name); for GI50: MDA-MB-435, melanoma
# UACC-257 = assay: NCI60 five-dose screen; type: cell-based; conditions: Homo sapiens, UACC-257, melanoma; for CC50: read-out: LC50 (the source's name)
# OVCAR-4 = assay: NCI60 five-dose screen; type: cell-based; conditions: Homo sapiens, OVCAR-4, ovarian cancer; for CC50: read-out: LC50 (the source's name)
# OVCAR-5 = assay: NCI60 five-dose screen; type: cell-based; conditions: Homo sapiens, OVCAR-5, ovarian cancer; for CC50: read-out: LC50 (the source's name)
# 786-0 = assay: NCI60 five-dose screen; type: cell-based; conditions: Homo sapiens, 786-0, renal cancer; for CC50: read-out: LC50 (the source's name)
# A498 = assay: NCI60 five-dose screen; type: cell-based; conditions: Homo sapiens, A498, renal cancer; for CC50: read-out: LC50 (the source's name)
# TK-10 = assay: NCI60 five-dose screen; type: cell-based; conditions: Homo sapiens, TK-10, renal cancer; for CC50: read-out: LC50 (the source's name)
# DU-145 = assay: NCI60 five-dose screen; type: cell-based; conditions: Homo sapiens, DU-145, prostate cancer; for CC50: read-out: LC50 (the source's name)
# HS 578T = assay: NCI60 five-dose screen; type: cell-based; conditions: Homo sapiens, breast cancer; for CC50: read-out: LC50 (the source's name)
# Human CYP19 (aromatase) = molecular target: T1, Human CYP19 (aromatase) (Homo sapiens, UniProt P11511); assay: Aromatase inhibition assay (DBF fluorometric substrate); type: biochemical; conditions: active defined as IC50 < 12.5 µM
# T1 construct: purchased GENTEST, Woburn, MA 456260; host or cells: baculovirus/insect cells
# T1 sequence (P11511 1-503): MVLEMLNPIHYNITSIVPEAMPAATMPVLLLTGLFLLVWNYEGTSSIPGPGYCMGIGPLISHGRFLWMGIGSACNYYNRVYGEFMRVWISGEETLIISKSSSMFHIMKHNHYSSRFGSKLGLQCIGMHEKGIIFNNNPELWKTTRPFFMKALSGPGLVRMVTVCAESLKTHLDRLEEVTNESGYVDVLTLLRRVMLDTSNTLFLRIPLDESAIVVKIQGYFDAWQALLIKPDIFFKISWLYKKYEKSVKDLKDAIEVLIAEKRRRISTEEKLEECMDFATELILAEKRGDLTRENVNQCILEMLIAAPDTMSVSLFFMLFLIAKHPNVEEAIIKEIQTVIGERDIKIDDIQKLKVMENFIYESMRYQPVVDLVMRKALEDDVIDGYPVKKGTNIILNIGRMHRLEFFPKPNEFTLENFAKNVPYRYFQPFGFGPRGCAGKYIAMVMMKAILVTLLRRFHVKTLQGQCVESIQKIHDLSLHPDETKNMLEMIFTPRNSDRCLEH
# In short: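 Insect-cell-expressed human CYP19 Supersomes with oxidoreductase turned over DBF for 30 min at 37 °C after a 10 min 37 °C pre-incubation with cofactor. NaOH quench; product measured by fluorescence, excitation 490 nm, emission 530 nm.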
# [1] = system: T47D breast cancer cell line; assay: Cytotoxicity MTT assay, T47D; type: cell-based, human; conditions: Homo sapiens, T47D; MTT, 48 hours
# In short: (§1)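 Read-out is absorbance at 570 nm of DMSO-solubilised formazan after a 3-hour incubation with 0.5 mg mL^−1 MTT. Percent viability is relative to vehicle (DMSO).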
# [2] = Cytotoxicity MTT assay, L929; type: cell-based, mouse; conditions: mouse, L929 fibroblast cells; MTT, 48 hours
# In short: as §1
# [3] = system: L929 normal mouse fibroblast cell line; assay: Cytotoxicity MTT assay, L929; type: cell-based; conditions: IC50 (L929)/IC50 (T47D)
# In short: as §1
Structure (SMILES),GI50 (CCRF-CEM) [µM],CC50 (CCRF-CEM) [µM],GI50 (HOP-92) [µM],CC50 (HOP-92) [µM],GI50 (NCI-H322M) [µM],CC50 (NCI-H322M) [µM],GI50 (NCI-H522) [µM],CC50 (NCI-H522) [µM],GI50 (KM12) [µM],CC50 (KM12) [µM],GI50 (SW-620) [µM],CC50 (SW-620) [µM],GI50 (U251) [µM],CC50 (U251) [µM],GI50 (MALME-3M) [µM],CC50 (MALME-3M) [µM],GI50 (M14) [µM],CC50 (M14) [µM],CC50 (MDA-MB-435) [µM],GI50 (MDA-MB-435) [µM],further results
"O=C(N/N=C/c1ccc(C(=O)N2CCOCC2)[nH]1)c1[nH]c2ccc(Br)cc2c1-c1ccccc1 [Derivative 3n, (E)-5-Bromo-N′-((5-(morpholine-4-carbonyl)-1H-pyrrol-2-yl)methylene)-3-phenyl-1H-indole-2-carbohydrazide]",3.45,> 100,6.14,> 100,13.9,> 100,1.6,58.8,2.91,43.6,3.26,> 100,3.1,84.7,11.7,> 100,1.92,64.2,55.4,0.392,GI50 (UACC-257): 11.9 µM; CC50 (UACC-257): 94.4 µM; GI50 (OVCAR-4): 2.93 µM; CC50 (OVCAR-4): > 100 µM; GI50 (OVCAR-5): 5.78 µM; CC50 (OVCAR-5): > 100 µM; GI50 (786-0): 2.86 µM; CC50 (786-0): 80.7 µM; GI50 (A498): 3.53 µM; CC50 (A498): 59.9 µM; GI50 (TK-10): 10.4 µM; CC50 (TK-10): > 100 µM; GI50 (DU-145): 3.72 µM; CC50 (DU-145): > 100 µM; GI50 (HS 578T): 1.04 µM; CC50 (HS 578T): > 100 µM; IC50 (Human CYP19 (aromatase)): 3.3 ± 0.6 µM; IC50 [1]: 5.4 ± 4.8 µM; IC50 at 48 h [2]: 21.8 ± 11.5 µM; Selectivity index (SI) [3]: 4.04
"Cc1cc(C)c(/C=N/NC(=O)c2[nH]c3ccc(Br)cc3c2-c2ccccc2)[nH]1 [Derivative 3c, (E)-5-Bromo-N′-((3,5-dimethyl-1H-pyrrol-2-yl)methylene)-3-phenyl-1H-2-carbohydrazide]",3.07,> 100,2.61,43.5,2.69,38.7,2.61,32.7,2.96,35.4,3.06,42,3.21,35.7,3.16,38.5,4.45,49.9,34,2.84,GI50 (UACC-257): 4.35 µM; CC50 (UACC-257): 49.2 µM; GI50 (OVCAR-4): 3.55 µM; CC50 (OVCAR-4): 40.7 µM; GI50 (OVCAR-5): 3.63 µM; CC50 (OVCAR-5): 37.6 µM; GI50 (786-0): 5.19 µM; CC50 (786-0): 63.9 µM; GI50 (A498): 8.25 µM; CC50 (A498): 46.9 µM; GI50 (TK-10): 7.32 µM; CC50 (TK-10): 45.2 µM; GI50 (DU-145): 4.07 µM; CC50 (DU-145): 38.9 µM; GI50 (HS 578T): 2.31 µM; CC50 (HS 578T): > 100 µM; IC50 (Human CYP19 (aromatase)): 11.1 ± 2 µM; IC50 [1]: 11.6 ± 0.3 µM; IC50 at 48 h [2]: 29.5 ± 12.6 µM; Selectivity index (SI) [3]: 2.54
"O=C(N/N=C/c1cc(Br)c[nH]1)c1[nH]c2ccc(Br)cc2c1-c1ccccc1 [Derivative 3e, (E)-5-Bromo-N′-((4-bromo-1H-pyrrol-2-yl)methylene)-3-phenyl-1H-indole-2-carbohydrazide]",0.341,> 100,1.51,26.3,0.578,38.8,0.185,19.1,0.301,16.3,0.405,59.4,0.418,10.1,0.665,32.5,0.27,20.2,24.3,0.207,GI50 (UACC-257): 1.09 µM; CC50 (UACC-257): 47 µM; GI50 (OVCAR-4): 1.35 µM; CC50 (OVCAR-4): 40.5 µM; GI50 (OVCAR-5): 0.346 µM; CC50 (OVCAR-5): 26.5 µM; GI50 (786-0): 0.727 µM; CC50 (786-0): 55.9 µM; GI50 (A498): 5.47 µM; CC50 (A498): 44.5 µM; GI50 (TK-10): 4.21 µM; CC50 (TK-10): 44.9 µM; GI50 (DU-145): 0.352 µM; CC50 (DU-145): 29.7 µM; GI50 (HS 578T): 0.34 µM; CC50 (HS 578T): > 100 µM; IC50 (Human CYP19 (aromatase)): 4 ± 1 µM; IC50 [1]: 2.4 ± 1.4 µM; IC50 at 48 h [2]: 22.3 ± 11.9 µM; Selectivity index (SI) [3]: 9.29
